In paper PMC4764904 (Scientific Reports, 2016):
Marks after values point to notes of the source that are not given here. Where a SMILES comes first, the peptide text is derived from it. Where no end group is shown, it is not given here. [ ]: non-standard residue; d: D form.

Columns and labels:
[1] = Peptide stability in human serum by residual IP3 production; assay type: in vitro ADME; settings: peptide 1 μM in 100% human serum, 37 °C, 0, 3, 6, 12, 24, 48, 72 h; residual activity read as IP3 production ([3H]-inositol) in HEK293 cells expressing GALR2; mean ± S.E., at least three independent experiments
Procedure: (§1) To investigate the effects of the modifications on proteolytic susceptibility, the functional activity of peptides that were incubated in 100% serum at 37 °C for 0, 3, 6, 12, 24, 48, and 72 h was determined via inositol 1,4,5-triphosphate (IP3) production in GALR2-expressing cells (Fig. 4A–C and Table 3). […] In addition, dAla4 and dGln14 substitutions contribute to longer longevity of the peptide in serum. In an additional experiment, we examined the degradation rates of the Qu mutant, as well as the Qu mutant with an N-terminal modification and/or dAla4 and dGln14 substitutions.
(§2) Figure 4 Stability of SPX mutants in the presence of FBS (A) Qu analogs in FBS (B) and human serum (C). Potency of Qu mutants toward GALR2 (D) and GALR3 (E). For stability of SPX mutants, peptides (1 μM) were incubated in serum for 0, 3, 6, 12, 24, 48, and 72 hrs. The remaining activities of the peptides were determined by measuring IP3 production by HEK293 cells that express GALR2 after the indicated times. IP3 production was expressed as percent change, where 100% indicates IP3 production by WT SPX incubated in FBS or human serum for 0 h. For potency of Qu mutants toward GALR2 and GALR3, the SRE-luc reporter vector and plasmid containing human GALR2 or GALR3 were transfected into HEK293 cells that stably expressed Gqi protein. Cells were then treated with increasing concentrations of mutant peptides, and the receptor activities were determined using the SRE-luc reporter system.
(§3) To evaluate the stability of SPX and its analogs in FBS or human serum, peptides were incubated at an initial concentration of 1 μM in 100% serum at 37 °C for 0, 3, 6, 12, 24, 48, and 72 hours. Residual peptide activity was then assessed by measuring IP3 in HEK293 cells expressing GALR2. For the IP3 assay, cells were seeded in 12-well plates at a density of 2.5 × 10^5 cells per well, and then the next day, cells were transiently transfected with 1 μg/well of plasmid containing GALR2 using the Lipofectamine 2000 (Invitrogen) transfection reagent. The day following transfection, cells were incubated in M199 media containing 1% FBS, 1% L-glutamine, 1% penicillin/streptomycin, and 1 μCi/well of myo-^3H inositol for 20 h. After a 30-min incubation in buffer A (140 mM NaCl, 20 mM Hepes, 4 mM KCl, 8 mM D-glucose, 1 mM MgCl2, 1 mM CaCl2, 1 mg/ml free fatty acid bovine serum albumin (BSA), and 10 mM LiCl at pH 7.2), cells were treated with the agonist for 40 min at 37 °C. Media was removed, and the reactions were terminated by addition of 1 ml of 10 mM cold formic acid to each well. The plates were stored at 4 °C for 30 min, and the extracts were then transferred into 6-ml plastic tubes containing 500 μl AG1–8X anion exchange columns (BIO-RAD). The tubes were gently mixed with a vortexer, and the supernatants were removed by aspiration. Two washes with 1 ml of distilled water were performed followed by two additional washes with 60 mM ammonium formate/5mM sodium tetraborate. Tritiated inositol was separated from the column by elution with 1 ml of 1 M ammonium formate/0.1 M formic acid, and 800 μl from the elution were taken from each tube and transferred into 6-ml scintillation vials. Then, 2 ml of scintillation cocktail solution (Ultima Gold^TM, Perkin Elmer, Waltham MA, USA) was added to each sample. The radioactivity of [^3H]-myo-inositol samples was measured using a TRI carb 3100TR liquid scintillation analyzer (Packard).

[2] = Peptide stability in FBS by residual IP3 production; assay type: in vitro ADME, bovine; settings: peptide 1 μM in 100% FBS, 37 °C, 0, 3, 6, 12, 24, 48, 72 h; residual activity read as IP3 production ([3H]-inositol) in HEK293 cells expressing GALR2; mean ± S.E., at least three independent experiments
Procedure: as §1, §2, §3

human GALR3 = biological target: T1, human GALR3 (Homo sapiens, UniProt O60755); assay: SRE-luc reporter assay, GALR3;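 note: luciferase activity read in cell lysates across rising peptide concentrations, EC50 being the agonist concentration giving half-maximal stimulation from a sigmoidal nonlinear fit, Gαqi routing Gi-coupled receptor signaling through Gq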; assay type: cell-based; settings: HEK293-Gqi cells transfected with SRE-luc and human GALR3; 6 h ligand treatment; mean ± S.E. of at least three independent experiments; NM = not measurable; read-out: GALR3 EC50
T1 construct: host or cells: HEK293 cells stably expressing Gαqi
T1 sequence (O60755 1-368): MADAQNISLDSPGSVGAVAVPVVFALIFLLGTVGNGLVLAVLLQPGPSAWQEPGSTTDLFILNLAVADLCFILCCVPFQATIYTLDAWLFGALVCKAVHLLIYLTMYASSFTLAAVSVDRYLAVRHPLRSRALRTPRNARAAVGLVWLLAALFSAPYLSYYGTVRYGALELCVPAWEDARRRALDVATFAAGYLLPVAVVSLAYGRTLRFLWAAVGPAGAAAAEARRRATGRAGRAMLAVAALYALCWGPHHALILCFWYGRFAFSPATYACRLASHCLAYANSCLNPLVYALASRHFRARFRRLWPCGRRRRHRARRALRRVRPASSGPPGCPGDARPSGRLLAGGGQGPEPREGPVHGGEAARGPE
Procedure: (§4) The generated mutant SPX peptides were incubated with cells expressing GALR2 and GALR3. […] The activities of the receptors were traced using the serum-response element-driven luciferase (SRE-luc) assay system.
(§5) The SRE-luc reporter vector and plasmid containing human GALR1, GALR2, or GALR3 were transfected into HEK293 cells that stably expressed Gqi protein. Cells were then treated with increasing concentrations of mutant peptides, and the receptor activities were determined using the SRE-luc reporter system.
(§6) HEK293 cells stably expressing Gαqi, which mediates Gαi-coupled receptor activation by stimulating Gαq-dependent signaling pathways[59], were maintained in Dulbecco’s modified Eagle’s medium (DMEM) supplemented with 10% FBS, 100 U/ml penicillin G, and 100 μg/ml streptomycin (Invitrogen). Cells were seeded in 48-well plates at a density of 2 × 10^4 cells per well, one day before transfection. A mixture containing 75 ng of the SRE-luc reporter construct, 75 ng of expression plasmid, and 2 μl of Effectene reagent (Qiagen, Chatsworth, CA, USA) was prepared and added to each well according to the manufacturer’s instructions. Cells were then maintained in serum-free DMEM for 16–18 h before treatment with the ligands. Approximately 48 h after transfection, cells were treated with the respective ligands for 6 h. Cells were lysed by the addition of 100 μl lysis buffer. The luciferase activity in 50 μl of cell extract was determined by a luciferase assay system according to the standard protocol for the Synergy 2 Multi-Mode Microplate Reader (BioTek, Winooski, VT, USA).
(§7) For in vitro studies data analysis was performed by nonlinear regression with a sigmoidal dose-response. The agonist concentrations that induced half-maximal stimulation (EC50) or half-maximal inhibition of binding (IC50) were calculated with GraphPad PRISM4 software (GraphPad Software Inc., San Diego, CA, USA). […] All data are presented as mean ± S.E. of at least three independent experiments and a P value of P < 0.05 was considered statistically significant.

human GALR2 = biological target: T2, human GALR2 (Homo sapiens, UniProt O43603); assay: SRE-luc reporter assay, GALR2;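 note: luciferase activity read in cell lysates after exposure to rising peptide concentrations, EC50 being the agonist level giving half-maximal stimulation from a sigmoidal nonlinear regression fit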; assay type: cell-based; settings: HEK293-Gqi cells transfected with SRE-luc and human GALR2; 6 h ligand treatment; mean ± S.E. of at least three independent experiments; NM = not measurable; read-out: GALR2 EC50
T2 construct: host or cells: HEK293 cells stably expressing Gαqi
T2 sequence (O43603 1-387): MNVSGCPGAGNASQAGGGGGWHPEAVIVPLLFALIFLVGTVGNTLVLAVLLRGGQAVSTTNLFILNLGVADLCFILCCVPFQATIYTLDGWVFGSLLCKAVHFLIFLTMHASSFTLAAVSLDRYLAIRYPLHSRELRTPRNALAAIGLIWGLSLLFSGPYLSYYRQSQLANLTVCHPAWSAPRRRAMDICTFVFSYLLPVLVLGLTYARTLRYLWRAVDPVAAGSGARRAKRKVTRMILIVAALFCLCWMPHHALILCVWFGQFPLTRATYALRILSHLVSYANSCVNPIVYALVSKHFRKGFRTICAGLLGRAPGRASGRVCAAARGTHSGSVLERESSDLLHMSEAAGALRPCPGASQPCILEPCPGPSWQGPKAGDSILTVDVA
Procedure: as §4, §5, §6, §7

Half-life activity (h) in Human Serum [1]	Half-life activity (h) in FBS [2]	EC50 (human GALR3)	EC50 (human GALR2)	Molecule
2.9 ± 0.1 ^a h	4.2 ± 0.1 ^a h	–	–	CC(C)C[C@H](NC(=O)[C@H](C)NC(=O)[C@H](C)NC(=O)[C@H](CC(N)=O)NC(=O)[C@@H]1CCCN1C(=O)[C@@H](NC(=O)[C@H](Cc1c[nH]c2ccccc12)NC(=O)[C@H](N)CC(N)=O)[C@@H](C)O)C(=O)N[C@@H](Cc1ccc(O)cc1)C(=O)N[C@@H](CC(C)C)C(=O)N[C@@H](Cc1ccccc1)C(=O)NCC(=O)N1CCC[C@H]1C(=O)N[C@@H](CCC(N)=O)C(N)=O [dN1-Qu] (H-[dN]WTPNAALYLFGPQ-NH2)
2.0 ± 0.2 h	2.6 ± 0.2 h	> 10000 nM	55 ± 9.24 nM	NWTPNAALYLFGPQ-NH2 [N5A7F11P13(Qu)]
